According to patent US10570168B2, “2′ and/or 5′ amino-acid ester phosphoramidate 3′-deoxy adenosine derivatives as anti- cancer compounds” (NuCana plc, priority 2014, dated 2020):

Columns and labels:
Assay in all cases: Solid tumour and haematological malignancy assay (CellTiterGlo)
Assay type in all cases: cell-based
[1] = system: RL; conditions: Homo sapiens, 72 hr
Experimental: (§1) In vitro viability assay were performed to assess the effects of compounds on cell viability in selected cell lines over 72 hr using the CellTiterGlo (CTG, Promega-G7573) assay. The tests were performed in duplicates with treatment of compounds at 9 points, 3.16 folds titration in 96 well plates over ˜72 hr. The compound starting concentrations were […]. Cell viability assay using CellTiterGlo in 96-well plate were performed. Compound treatment 72 hrs, standard growth conditions, duplicates. Compounds were dissolved to 40 mM with thawed […]. Compounds were serially diluted at 3.16 fold in thawed DMSO, and warmed to 37° C. before being dissolved in media ([…]). After compounds were dissolved in media, media containing compounds were warmed to 37° C. in incubator and then compounds in media were added to cell plates ([…]) in duplicates. The compounds' final concentrations were from […] to 19.9 nM. All compound solubilities were checked and recorded again, then the plates were transferred to CO2 tissue culture incubator immediately and incubated for 3 days. DMSO final concentration is 0.5%.

[2] = system: MOLT-4; conditions: Homo sapiens, MOLT-4, 72 hr
Experimental: as §1

[3] = system: Z138; conditions: Homo sapiens, Z-138, 72 hr
Experimental: as §1

[4] = system: RPMI-8226; conditions: Homo sapiens, RPMI-8226, 72 hr
Experimental: as §1

[5] = system: MV4-11; conditions: Homo sapiens, MV4-11, 72 hr
Experimental: as §1

[6] = system: SW620; conditions: Homo sapiens, SW-620, SW620, 72 hr
Experimental: as §1

[7] = system: HS445; conditions: Hs 445, HS445, 72 hr
Experimental: as §1

[8] = system: BxPC-3-Luc; conditions: BxPC-3-Luc, 72 hr; read-out: EC50 (absolute EC50)
Experimental: as §1

[9] = system: NCI-H929; conditions: Homo sapiens, NCI-H929, 72 hr
Experimental: as §1

[10] = system: THP-1; conditions: Homo sapiens, THP-1, 72 hr
Experimental: as §1

[11] = system: K562; conditions: Homo sapiens, K562, 72 hr
In short: (§2)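 Cells were exposed to compound for 72 hr under standard growth conditions, in duplicate, with 0.5% final DMSO. Viability was then read by CellTiterGlo luminescence.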

[12] = system: KG-1; conditions: Homo sapiens, KG-1, 72 hr
In short: as §2

[13] = system: MCF7; conditions: Homo sapiens, MCF7, MCF-7, 72 hr
In short: as §2

[14] = system: HL-60; conditions: Homo sapiens, HL-60, 72 hr
In short: as §2

[15] = system: HepG2; conditions: Homo sapiens, HepG2, 72 hr
In short: as §2

[16] = system: CCRFCEM; conditions: Homo sapiens, CCRF-CEM, 72 hr
In short: as §2

[17] = system: HEL92.1.7; conditions: Homo sapiens, HEL.92.1.7, 72 hr
In short: as §2

[18] = system: HT29; conditions: Homo sapiens, HT-29, HT29, 72 hr
In short: as §2

[19] = system: MiaPaCa-2; conditions: Homo sapiens, MIA PaCa-2, Mia-Pa-Ca-2, 72 hr
In short: as §2

EC50 ([1]; read-out: EC50 (absolute EC50)): 15 to 100 µM | EC50 ([2]; read-out: EC50 (absolute EC50)): > 100 µM | EC50 ([3]; read-out: EC50 (absolute EC50)): 15 to 100 µM | EC50 ([4]; read-out: EC50 (absolute EC50)): > 100 µM | EC50 ([5]; read-out: EC50 (absolute EC50)): 15 to 100 µM | EC50 ([6]; read-out: EC50 (absolute EC50)): > 100 µM | EC50 ([7]; read-out: EC50 (absolute EC50)): > 100 µM | EC50 [8]: > 100 µM | EC50 ([9]; read-out: EC50 (absolute EC50)): 5 to 15 µM | EC50 ([10]; read-out: EC50 (absolute EC50)): > 100 µM | EC50 ([11]; read-out: EC50 (absolute EC50)): > 100 µM | EC50 ([12]; read-out: EC50 (absolute EC50)): > 100 µM | EC50 ([13]; read-out: EC50 (absolute EC50)): > 100 µM | EC50 ([14]; read-out: EC50 (absolute EC50)): 15 to 100 µM | EC50 ([15]; read-out: EC50 (absolute EC50)): > 100 µM | EC50 ([16]; read-out: EC50 (absolute EC50)): 15 to 100 µM | EC50 ([17]; read-out: EC50 (absolute EC50)): 5 to 15 µM | EC50 ([18]; read-out: EC50 (absolute EC50)): > 100 µM | EC50 ([19]; read-out: EC50 (absolute EC50)): > 100 µM
Structure (SMILES): Nc1nc(Cl)nc2c1ncn2[C@@H]1O[C@H](CO)C[C@H]1O [2-Cl-cordycepin, 3′-deoxy-2-chloroadenosine, reference compound]
Emax ([1]; Table VII, read-out: MI %): 84.1% | Emax ([2]; Table VII, read-out: MI %): 80.4% | Emax ([3]; Table VII, read-out: MI %): 99.5% | Emax ([4]; Table VII, read-out: MI %): 29% | Emax ([5]; Table VII, read-out: MI %): 100% | Emax ([6]; Table VII, read-out: MI %): 36.3% | Emax ([7]; Table VII, read-out: MI %): -1.9% | Emax ([9]; Table VII, read-out: MI %): 93.6% | Emax ([10]; Table VII, read-out: MI %): 24.1% | Emax ([11]; Table VII, read-out: MI %): 37.6% | Emax ([12]; Table VII, read-out: MI %): 4.3% | Emax ([13]; Table VII, read-out: MI %): -0.9% | Emax ([14]; Table VII, read-out: MI %): 84.4% | Emax ([15]; Table VII, read-out: MI %): 31.1% | Emax ([16]; Table VII, read-out: MI %): 98.1% | Emax ([17]; Table VII, read-out: MI %): 94.3% | Emax ([18]; Table VII, read-out: MI %): 4.4% | Emax ([19]; Table VII, read-out: MI %): 17.7%
